According to the SangsterLogP compilation:

settings: not given

Structure (SMILES) | logP
FC(F)(F)c1cccc(C(F)(F)F)c1 | 3.83
N#CC#N | 0.07
CN(C)C(=S)NN | -0.3
Cc1cc(C)[nH]n1 | 1.01
CCCCCCn1cc(C)c(=O)[nH]c1=O | 1.93
ON=Cc1nnc(-c2ccccc2)o1 | 2.03
CCS(=O)(=O)CC | -0.59
COP(=S)(OC)SCC(=O)N(C)C=O | 1.48
Cn1cccn1 | 0.23
NC(=O)CCOc1ccccc1 | 0.8
Ic1ccc(I)cc1 | 4.11
O=C(NCCCO)C(F)(F)Cn1ccnc1[N+](=O)[O-] | -0.64
c1ccc(CCCc2ccccc2)cc1 | 3.43
COC(=O)c1ccc(Cl)cc1 | 2.76
C=C(C)CN(CC)c1c([N+](=O)[O-])cc(C(F)(F)F)cc1[N+](=O)[O-] | 5.11
CCc1cccnc1 | 1.66
COC(=O)c1cc(S(N)(=O)=O)ccc1SCCCO | 0.78
O=C(N/N=C/c1ccc[nH]1)Nc1ccccc1 | 2.96
CN(C)C1=CC(=O)c2ccccc2C1=O | 1.9
O=C1C=C(N2CCCC2)C(=O)c2ccccc21 | 2.89
O/N=C/c1ccccc1 | 1.85

Structure (SMILES) | logP
CCC(=O)OC | 0.82
Cc1nn(C)c(OCC(=O)c2ccccc2)c1C(=O)c1ccc(Cl)cc1Cl | 3.69
CCCOP(OCCC)OCCC | 2.26
CN(C)N=Nc1cccc2oc3ccccc3c12 | 4.55
O=[N+]([O-])c1ccc(/C=N/O)cc1 | 1.95
CCN(CC)c1c([N+](=O)[O-])cc(C(F)(F)F)c(N)c1[N+](=O)[O-] | 4.3
CCC(=O)N(C)C | -0.11
C=CCCC=C | 2.87
CCOC(=O)C(C(=O)OCC)=C(C(=O)OCC)C(=O)OCC | 2.63
CCCCCCCCCCCCCCc1cccc(N2C(N)=NC(N)=NC2(C)C)c1 | 3.64
S=C(N/N=C/c1ccc[nH]1)Nc1ccccc1 | 3.73
CCOC(=O)CC(=O)c1ccccc1 | 1.87
CCON=C(OC(=O)c1ccccc1)c1c(OC)ccc(Cl)c1OC | 2.4
CCOC(=O)C(=O)Nc1ccccc1 | 1.48
Cc1cccc(CC(=O)O)c1Nc1c(Cl)cccc1Cl | 4.93
CC(=S)N(c1ccccc1)c1ccccc1 | 2.83
COCC(C)OC (configuration not stated) | -0.09
O/N=C/c1ccc(Cl)cc1 | 2.67
CC(=O)Nc1nccs1 | 0.76
CCCOC | 1.21
CCCCSP(=O)(SCCCC)SCCCC | 3.23

Structure (SMILES) | logP
CN(C(=O)COc1nc2ccccc2s1)c1ccccc1 | 3.23
CC(C(=O)O)c1ccc(N2C(=O)C3CC=CCC3C2=O)cc1 (configuration not stated) | 2.27
FC(F)(F)c1ccc(C(F)(F)F)cc1 | 3.83
c1ccc(COCc2ccccc2)cc1 | 3.31
COc1ccc(S(C)(=O)=O)cc1 | 0.76
CCCSP(=O)(OCC)SCCC | 3.59
CC(=O)N=c1[nH]c(=O)ccn1C1OC(COC(C)=O)C(OC(C)=O)C1OC(C)=O (configuration not stated) | -0.16
CNC(=O)CNC(=O)CCc1ccc(S(=O)(=O)N(C)C)cc1 | -0.35
O=S(=O)(CCl)c1ccccc1 | 1.24
CCC(C)(C)Cl | 2.52
Cc1cccc(C)c1N | 1.84
O=C(N/N=C/c1ccco1)Nc1ccccc1 | 2.52
OCC=CCO | -0.81
CC(C)=NOCCOC(=O)[C@@H](C)Oc1ccc(Oc2cnc3cc(Cl)ccc3n2)cc1 | 4.6
N#CCC(=O)c1ccccc1 | 0.97
CC(=O)C1CC1 | 0.49
Cc1ccncn1 | 0.16
COc1cc(C)c2c(c1OC)C1CCC(NCc3ccccc3)C(=O)CC1C(NC(C)=O)CC2 (configuration not stated) | 3.58
O=CN1CCCC1 | -0.32
O=S(Cc1ccccc1)Cc1ccccc1 | 1.99
CCCSP(=O)(OCC)Oc1cnn(-c2ccc(Cl)cc2)c1 (configuration not stated) | 3.77

Structure (SMILES) | logP
CN(C)c1cccnc1 | 1.41
CC(C)(C)n1ccnc1C=NO | 0.85
Nc1ccc([C@@H](O)[C@@H](CO)NC(=O)C(Cl)Cl)cc1 | -0.29
COC=O | 0.03
CCCCNc1ccc(C(=O)OCCOCCOCCOCCOCCOCCOCCOCCOCCOC)cc1 | 2.45
CC1=C(N2CC2)C(=O)c2ccc(CCOC(N)=O)c(N3CC3)c2C1=O | 0.16
O=[N+]([O-])c1ccc(O)c(O)c1 | 1.66
N#Cc1ccccc1N | 1.4
Cn1c(N)nc2ccc(C#N)cc21 | 1.29
O=C1C=CCO1 | -0.6
CC(C)(C)C(=O)c1ccccc1 | 3
CCN(CC)C(=O)COC(=O)[C@@H](C)c1ccc2cc(OC)ccc2c1 | 3.32
c1ccc2c(c1)Cc1ccccc1S2 | 3.86
CN(C)C(=O)C12CC3CC(CC(C3)C1)C2 | 2.55
O=[N+]([O-])c1ccc(Nc2ccccc2)cc1 | 3.74
NC(=O)CCNC(=O)C(F)(F)Cn1cncc1[N+](=O)[O-] | -0.95
O=C1C=C(N2CCCC2)C(=O)C=C1N1CCCC1 | 1.97
CCNC(=O)c1ccco1 | 0.61

same assay, conditions: pH 1.0

Structure (SMILES) | logD
O=C(O)CCCl | 0.41
CC(C=CC1=C(C)CCCC1(C)C)=CC=CC(C)=CC(=O)O | 6.3
O=C(O)c1c(Cl)cccc1Cl | 2.23
O=C(O)/C=C/c1ccc([N+](=O)[O-])cc1 | 2.12
N#CCC(=O)O | -0.76
O=C(O)C1CC1 | 0.63
CC(C)(C)C#N | 1.08

same assay, conditions: pH 2.1

Structure (SMILES) | logD
CC(=O)Nc1ccc(S(N)(=O)=O)cc1 | 0

same assay, conditions: pH 3.9

Structure (SMILES) | logD
COC(=O)Nc1cccc(OC(=O)Nc2cccc(C)c2)c1 | 3.59

same assay, conditions: pH 4.0

Structure (SMILES) | logD
O=[N+]([O-])c1cc(C(F)(F)F)ccc1NN=C(C(F)(F)F)C(F)(F)F | 4.8
O=[N+]([O-])c1cc(C(F)(F)F)cc([N+](=O)[O-])c1NN=CC(F)(F)F | 2.8

same assay, conditions: pH 5.0

Structure (SMILES) | logD
c1n[nH]c2c1CC[C@H]1c3[nH]ncc3CC[C@H]21 | 0.3

same assay, conditions: pH 7.0

Structure (SMILES) | logD
CCC1COC(Cn2cncn2)(c2ccc(-n3cncn3)cc2Cl)O1 (configuration not stated) | 1.28
CC1(CO)COC(Cn2cncn2)(c2ccc(Cl)cc2Cl)OC1 (configuration not stated) | 2.1
CCCCC#N | 1.12

same assay, conditions: pH 7.1

Structure (SMILES) | logD
CSCCC(NC(C)=O)C(N)=O (configuration not stated) | -0.6

same assay, conditions: pH 7.4

Structure (SMILES) | logD
CN(C)c1nc2c3cccnc3ccc2n1C | 2.28
Cc1ccc(C=Cc2ncc([N+](=O)[O-])n2CO)cc1 | 2.25
CN1C(=O)CN=C(c2ccccc2F)c2c(F)cccc21 | 2.41
CC(C)Cn1c(=O)n(C)c(=O)c2[nH]c(CC(O)N3CCN(C(c4ccccc4)c4ccccc4)CC3)nc21 (configuration not stated) | 5.21
CC(=O)Oc1cccc2cccnc12 | 2.03
CC(C)(C)c1ccc(N)cc1 | 2.7
Cc1cc([N+](=O)[O-])cc2c1NC(=O)CN=C2c1ccccc1 | 2.33
Cc1ccc(C=Cc2ncc([N+](=O)[O-])n2C)cc1 | 1.64
CCc1cccc2cccnc12 | 2.93
CN1C(=O)CN=C(c2ccccc2)c2cc(C#N)ccc21 | 1.8

same assay, conditions: pH 9.8

Structure (SMILES) | logD
c1ccc(C2CN3CCSC3=N2)cc1 (configuration not stated) | 1.84

same assay, conditions: pH 13.0

Structure (SMILES) | logD
c1ccc(N2CCNCC2)cc1 | 1.11
CCNCCNCC | 0.21
COc1c(C)ccc(Cc2cnc(N)nc2N)c1C(C)(C)C | 3.05
CNCCO | -0.94
Nc1ncc(Cc2cccc(Cl)c2Cl)c(N)n1 | 2.81
N#CCN | -1.37
c1ccc(C23CCN(CC2)CC3)cc1 | 2.54
N=C(N)c1ccc(N)cc1 | -0.49
CN1CCCNCC1 | -0.4
